Laboratory results published in patent publication US20240415819A1, “MACROCYCLIC COMPOUNDS AS PROTEASOME SUBUNIT BETA TYPE-5 INHIBITORS” (Lead Discovery Center GmbH, priority 2021, published 2024).
pIC50: −log10 of the molar value.

Legend:
[1] = biological target: T1, β5 subunit of the human constitutive proteasome (CPS) (Homo sapiens, UniProt P28074); assay: β5 inhibition assay, human constitutive proteasome (Suc-LLVY-AMC); format: biochemical; conditions: IC50 class, Suc-LLVY-AMC substrate
T1 construct: purchased Boston Biochem E-360
Experimental: The enzymatic activity of the β5 subunit of the human constitutive proteasome (CPS) is analyzed. In another assay, which differs from the assay of the human constitutive proteasome only in using the human immunoproteasome (IPS) the enzymatic activity of the β5 subunit of the human immunoproteasome (IPS) is analyzed. […] Inhibition is indicated as IC50 [nM] (“-”=not measured).

[2] = test system: HT-29 cells; assay: CellTiter-Glo luminescent cell viability assay with HT-29 cells (72h incubation); format: cell-based, human; conditions: Homo sapiens, HT-29, HT29 cells, read-out: CTG HT29
Method in brief: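 400 cells per well in DMEM/10% FCS were dosed after 24 h and kept 72 h at 37 °C, 5% CO2. ATP-based luminescence (CellTiter-Glo) normalized to DMSO and 10 μM staurosporine controls; IC50 by dose-response fit.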

[3] = test system: hPMBC; assay: Chymotrypsin-like ProteasomeGlo assay in hPBMC; format: cell-based; conditions: Homo sapiens; read-out: Pglo hPBMC
Method in brief: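 B cells isolated from human PBMC (buffy coats, density gradient, magnetic isolation). Cells treated with compound for 105 min at 37 °C, with staurosporine and DMSO included. Chymotrypsin-like proteasome activity read by luminescence with Suc-LLVY-Glo substrate to derive IC50.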

Row | Compound | pIC50 [1] | pIC50 [2] | pIC50 [3]
1 | CC(=O)N[C@H]1CCCC(=O)N2CC3CC(Oc4ccc(C)c(c4)CNC(=O)[C@H](CCc4ccccc4)NC1=O)C3C2 (stereo partly drawn) [Compound 191, N-((11R,15S,7S,10S)-3^4-methyl-6,9,14-trioxo-7-phenethyl-2-oxa-13,5,8-triaza-1(7,3)-bicyclo[3.2.0]heptana-3(1,3)-benzenacyclotetradecaphane-10-yl)acetamide] | 6.00 to 6.30 | 5.30 to 6.00 | 6.30 to 7.00
2 | Cc1ccc2cc1CNC(=O)[C@H](CCc1ccccc1)NC(=O)[C@@H](NC(=O)OCc1ccccc1)CCCC(=O)N1CCCC(CCO2)C1 (stereo partly drawn) [Compound 195, benzyl ((9S,12S)-5^4-methyl-8,11,16-trioxo-9-phenethyl-4-oxa-7,10-diaza-1(3,1)-piperidina-5(1,3)-benzenacyclohexadecaphane-12-yl)carbamate] | > 7.00 | > 7.00 | > 7.00
3 | Cc1ccc2cc1CNC(=O)[C@H](CCc1ccccc1)NC(=O)[C@@H](NC(=O)OCc1ccccc1)CCC(=O)N1CCCC(CCO2)C1 (stereo partly drawn) [Compound 199, benzyl ((9S,12S)-5^4-methyl-8,11,15-trioxo-9-phenethyl-4-oxa-7,10-diaza-1(3,1)-piperidina-5(1,3)-benzenacyclopentadecaphane-12-yl)carbamate] | > 7.00 | > 7.00 | > 7.00
4 | CC(=O)N[C@H]1CC(=O)N2CCCC(CCOc3ccc(F)c(c3)CNC(=O)[C@H](CCc3ccccc3)NC1=O)C2 (stereo partly drawn) [Compound 205, N-((9S,12S)-5^4-fluoro-8,11,14-trioxo-9-phenethyl-4-oxa-7,10-diaza-1(3,1)-piperidina-5(1,3)-benzenacyclotetradecaphane-12-yl)acetamide] | > 7.00 | > 7.00 | > 7.00
5 | COc1ccc2cc1CNC(=O)[C@H](CCc1ccccc1)NC(=O)[C@@H](NC(C)=O)CC(=O)N1CCCC(CCO2)C1 (stereo partly drawn) [Compound 211, N-((9S,12S)-5^4-methoxy-8,11,14-trioxo-9-phenethyl-4-oxa-7,10-diaza-1(3,1)-piperidina-5(1,3)-benzenacyclotetradecaphane-12-yl)acetamide] | 6.30 to 7.00 | 6.30 to 7.00 | 6.30 to 7.00
6 | CC(=O)N[C@H]1CCCC(=O)N2CCCC(CCOc3ccc(C)c(c3)CNC(=O)[C@H](CCc3ccccc3)NC1=O)C2 (stereo partly drawn) [Compound 213, N-((9S,12S)-5^4-methyl-8,11,16-trioxo-9-phenethyl-4-oxa-7,10-diaza-1(3,1)-piperidina-5(1,3)-benzenacyclohexadecaphane-12-yl)acetamide] | > 7.00 | > 7.00 | > 7.00
7 | CC(=O)N[C@H]1CCC(=O)N2CCCC(CCOc3ccc(C)c(c3)CNC(=O)[C@H](CCc3ccccc3)NC1=O)C2 (stereo partly drawn) [Compound 215, N-((9S,12S)-5^4-methyl-8,11,15-trioxo-9-phenethyl-4-oxa-7,10-diaza-1(3,1)-piperidina-5(1,3)-benzenacyclopentadecaphane-12-yl)acetamide] | > 7.00 | > 7.00 | > 7.00
8 | Cc1ccc2cc1CNC(=O)[C@H](CCc1ccccc1)NC(=O)[C@@H](NS(=O)(=O)Cc1ccccc1)CC(=O)N1CCCC(CCO2)C1 (stereo partly drawn) [Compound 216, N-((9S,12S)-5^4-methyl-8,11,14-trioxo-9-phenethyl-4-oxa-7,10-diaza-1(3,1)-piperidina-5(1,3)-benzenacyclotetradecaphane-12-yl)-1-phenylmethanesulfonamide] | > 7.00 | > 7.00 | > 7.00
9 | Cc1ccc2cc1CNC(=O)[C@H](CCc1ccccc1)NC(=O)[C@@H](NS(=O)(=O)CCc1ccccc1)CC(=O)N1CCCC(CCO2)C1 (stereo partly drawn) [Compound 217, N-((9S,12S)-5^4-methyl-8,11,14-trioxo-9-phenethyl-4-oxa-7,10-diaza-1(3,1)-piperidina-5(1,3)-benzenacyclotetradecaphane-12-yl)-2-phenylethane-1-sulfonamide] | > 7.00 | > 7.00 | > 7.00
10 | COCCOCCOCCOCCOCCC(=O)N[C@H]1CC(=O)N2CCCC(CCOc3ccc(C)c(c3)CNC(=O)[C@H](CCc3ccccc3)NC1=O)C2 (stereo partly drawn) [Compound 219, N-((9S,12S)-5^4-methyl-8,11,14-trioxo-9-phenethyl-4-oxa-7,10-diaza-1(3,1)-piperidina-5(1,3)-benzenacyclotetradecaphane-12-yl)-2,5,8,11,14-pentaoxaheptadecan-17-amide] | > 7.00 | > 7.00 | > 7.00
11 | COCCOCCOCCOC(=O)N[C@H]1CC(=O)N2CCCC(CCOc3ccc(C)c(c3)CNC(=O)[C@H](CCc3ccccc3)NC1=O)C2 (stereo partly drawn) [Compound 220, 2-(2-(2-methoxyethoxy)ethoxy)ethyl ((9R,12R)-5^4-methyl-8,11,14-trioxo-9-phenethyl-4-oxa-7,10-diaza-1(3,1)-piperidina-5(1,3)-benzenacyclotetradecaphane-12-yl)carbamate] | > 7.00 | > 7.00 | > 7.00
12 | CC(=O)N[C@H]1CC(=O)N2CCOC(CCOc3ccc(C)c(c3)CNC(=O)[C@H](CCc3ccccc3)NC1=O)C2 (stereo partly drawn) [Compound 258, N-((9S,12S)-5^4-methyl-8,11,14-trioxo-9-phenethyl-4-oxa-7,10-diaza-1(2,4)-morpholina-5(1,3)-benzenacyclotetradecaphane-12-yl)acetamide] | 6.30 to 7.00 | 6.30 to 7.00 | 6.30 to 7.00
13 | CC(=O)N[C@H]1CCCC(=O)N2CCC2(C)COc2ccc(C)c(c2)CNC(=O)[C@H](CCc2ccccc2)NC1=O (stereo partly drawn) [Compound 281, N-((8S,11S)-1^2,4^4-dimethyl-7,10,15-trioxo-8-phenethyl-3-oxa-6,9-diaza-1(2,1)-azetidina-4(1,3)-benzenacyclopentadecaphane-11-yl)acetamide] | 5.30 to 6.00 | 6.30 to 7.00 | 5.30 to 6.00
14 | CC(=O)N[C@H]1CCC(=O)N(C)CCCCOc2ccc(C)c(c2)CNC(=O)[C@H](CCc2ccccc2)NC1=O [Compound 282, N-((11S,14S)-1^4,7-dimethyl-8,12,15-trioxo-1^4-phenethyl-2-oxa-7,13,16-triaza-1(1,3)-benzenacycloheptadecaphane-11-yl)acetamide] | < 5.30 | 6.30 to 7.00 | 6.00 to 6.30
15 | Cc1ccc2cc1CNC(=O)[C@H](CCc1ccccc1)NC(=O)[C@@H](NC(=O)C(C)(C)CO)CC(=O)N1CCCC(CCO2)C1 (stereo partly drawn) [Compound 284, 3-hydroxy-2,2-dimethyl-N-((9S,12S)-5^4-methyl-8,11,14-trioxo-9-phenethyl-4-oxa-7,10-diaza-1(3,1)-piperidina-5(1,3)-benzenacyclotetradecaphane-12-yl)propanamide] | > 7.00 | > 7.00 | > 7.00
16 | CCC(CC)(CO)C(=O)N[C@H]1CC(=O)N2CCCC(CCOc3ccc(C)c(c3)CNC(=O)[C@H](CCc3ccccc3)NC1=O)C2 (stereo partly drawn) [Compound 285, 2-ethyl-2-(hydroxymethyl)-N-((9S,12S)-5^4-methyl-8,11,14-trioxo-9-phenethyl-4-oxa-7,10-diaza-1(3,1)-piperidina-5(1,3)-benzenacyclotetradecaphane-12-yl)butanamide] | > 7.00 | > 7.00 | > 7.00
